Laboratory results from patent US8945865B2, “Method for screening for compound capable of enhancing or inhibiting OATP1B1 transport activity, and method for determining expression level of OATP1B1” (Eisai R&D Management Co., Ltd., priority 2011, dated 2015).
pKi: −log10 of the molar value.

What was measured:
[1] = system: human hepatocytes; test: Effect of OATP inhibitors on DCF uptake by human hepatocytes; conditions: inhibitor final 10 μM, 37° C.; reduced to the level comparable to the uptake at 4° C.
Description: (§1) Human hepatocytes were prepared as in Example 6, and a hepatocyte suspension was prepared at 1×10^6 cells/mL.

[2] = biological target: T1, OATP1B1 (Homo sapiens, UniProt Q9Y6L6, N130D); test: OATP1B1 inhibition, conventional RI method (radiolabeled estradiol-17β-D-glucuronide)
T1 sequence (Q9Y6L6 1-691 N130D): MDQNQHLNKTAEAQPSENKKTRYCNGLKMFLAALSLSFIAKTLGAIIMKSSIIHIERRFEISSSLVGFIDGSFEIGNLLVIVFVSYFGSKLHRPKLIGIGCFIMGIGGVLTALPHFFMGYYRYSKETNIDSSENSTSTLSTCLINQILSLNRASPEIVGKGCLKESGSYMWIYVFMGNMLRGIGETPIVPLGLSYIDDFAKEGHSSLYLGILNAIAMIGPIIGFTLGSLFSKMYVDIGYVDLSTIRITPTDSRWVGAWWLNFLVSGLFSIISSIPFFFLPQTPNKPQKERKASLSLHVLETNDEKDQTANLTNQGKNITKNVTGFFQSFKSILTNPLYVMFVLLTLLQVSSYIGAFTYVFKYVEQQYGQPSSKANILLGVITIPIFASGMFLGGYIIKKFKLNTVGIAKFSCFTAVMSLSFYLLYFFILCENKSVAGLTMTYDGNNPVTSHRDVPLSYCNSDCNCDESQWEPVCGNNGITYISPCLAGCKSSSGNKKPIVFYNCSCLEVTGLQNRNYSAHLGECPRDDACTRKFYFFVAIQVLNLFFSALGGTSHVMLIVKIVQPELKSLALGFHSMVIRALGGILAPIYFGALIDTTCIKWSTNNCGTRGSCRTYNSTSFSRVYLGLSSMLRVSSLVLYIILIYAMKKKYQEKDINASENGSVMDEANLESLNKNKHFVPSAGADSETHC
Description: In the conventional RI method, radiolabeled estradiol-17β-D-glucuronide (EG) was used. […] Subsequently, the cells were washed with an ice-cold KH buffer three times and then solubilized with an aqueous 0.1 N NaOH solution, and after neutralization with an aqueous 1 N HCl solution, the radioactivity taken up by the cells was measured.

[3] = biological target: T1, OATP1B1; test: OATP1B1 inhibition, DCF method (fluorescent substrate)
[4] = biological target: T1, OATP1B1; test: Substrate specificity of fluorescein derivatives: uptake by HEK-293 cells forcedly expressing OATP1B1; assay type: in vitro ADME; parameters: Expression vectors, pcDNA3.1 vectors (Invitrogen Corporation), carrying the resulting genes were respectively introduced into HEK-293 cells; expressed in transfected cells; host or cells: HEK-293 cells, pcDNA3.1 vector, hygromycin selection; conditions: 1 μM dye, 37° C., 5 minutes, compared with OATP1B3 and OATP2B1
Description: Complementary DNAs of OATP1B1, OATP1B3, and OATP2B1 (respectively shown by SEQ ID NOs: 2, 3, and 4) were cloned by RT-PCR using human liver total RNA (Invitrogen Corporation) as a template and the following primers: […]
Expression vectors, pcDNA3.1 vectors (Invitrogen Corporation), carrying the resulting genes were respectively introduced into HEK-293 cells by lipofection using Lipofectamin 2000 (Invitrogen Corporation). The cells were cultured in Hygromycin-containing selective media to produce HEK-293 cells forcedly expressing OATP1B1, OATP1B3, and OATP2B1, respectively.

[5] = biological target: T1, OATP1B1
Description: The Km and Vmax were calculated by the following Michaelis-Menten equation. […] Each parameter represents the mean value of four independent experiments.

[6] = system: human hepatocytes
Description: as §1

[7] = biological target: T2, OAT3 (Homo sapiens, UniProt Q8TCC7); test: Substrate specificity of fluorescein derivatives on OAT3 (same method); conditions: FIG. 1(b), same method as Example 1
T2 sequence (Q8TCC7 1-542): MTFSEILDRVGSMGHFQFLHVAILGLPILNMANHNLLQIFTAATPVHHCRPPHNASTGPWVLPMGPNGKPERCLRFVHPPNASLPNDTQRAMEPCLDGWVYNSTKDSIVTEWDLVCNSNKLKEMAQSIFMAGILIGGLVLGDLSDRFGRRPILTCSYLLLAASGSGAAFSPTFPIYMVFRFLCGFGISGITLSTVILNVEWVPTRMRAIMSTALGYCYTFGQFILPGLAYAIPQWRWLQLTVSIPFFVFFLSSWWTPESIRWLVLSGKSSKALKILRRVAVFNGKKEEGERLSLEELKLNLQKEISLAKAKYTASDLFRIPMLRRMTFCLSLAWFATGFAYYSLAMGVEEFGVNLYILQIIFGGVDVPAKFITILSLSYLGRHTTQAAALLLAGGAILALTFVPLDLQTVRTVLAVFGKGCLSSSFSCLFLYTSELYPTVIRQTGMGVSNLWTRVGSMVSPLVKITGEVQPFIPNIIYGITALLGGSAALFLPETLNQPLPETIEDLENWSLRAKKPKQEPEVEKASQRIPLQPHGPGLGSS
Description: The above cells were seeded in a poly-D-lysine-coated dish at 4×10^5 cells/well. The medium was replaced with a KH buffer, and various fluorescent dyes dissolved in DMSO were added to the respective HEK-293 cells such that the final concentration in the KH buffer was 1 μM, followed by incubation at 37° C. for 5 minutes. Subsequently, the cells were washed with an ice-cold KH buffer three times and were then solubilized with an aqueous 0.1 N NaOH solution, and the fluorescence intensity of the fluorescent dye taken up by the cells was measured (excitation wavelength: 490 nm, fluorescence wavelength: 515 nm).
In order to quantitatively measure the amount of fluorescent compound taken up by the cells, a calibration curve showing the fluorescence intensity per unit fluorescent compound was prepared in advance. Based on this calibration curve, the measured fluorescence intensity was converted into the fluorescent compound per well (pmol/well or μL/well), which was divided by the total protein amount (mg protein/well) of the solubilized cells (standardization) to convert into the fluorescent compound amount per unit protein (pmol/mg protein or μL/mg protein).

[8] = biological target: T1, OATP1B1; test: Time profiles of the uptake of DCF by OATP1B1; assay type: in vitro ADME; parameters: Expression vectors, pcDNA3.1 vectors (Invitrogen Corporation), carrying the resulting genes were respectively introduced into HEK-293 cells; expressed in transfected cells; host or cells: HEK-293 cells, pcDNA3.1 vector, hygromycin selection; conditions: 0.1, 1 and 10 μM DCF, 37° C., 1 to 30 min
Description: The cells were sampled at the incubation times of 1 min, 5 min, 10 min, and 30 min, washed with an ice-cold KH buffer three times, and then solubilized with an aqueous 0.1 N NaOH solution, and the fluorescence intensity of the fluorescent dye taken up by the cells was measured as in Example 1 (excitation wavelength: 490 nm, fluorescence wavelength: 515 nm).

[9] = system: human hepatocytes; test: Time/temperature-dependent uptake of DCF by human hepatocytes; assay type: in vitro ADME; conditions: 37° C. versus 4° C., 0.5 to 5 min, cryopreserved human hepatocytes
Description: Cryopreserved human hepatocytes and cryopreserved hepatocytes recovery medium (CHRM) were purchased from Invitrogen Corporation. The cryopreserved human hepatocytes were thawed in a water bath at 37° C. and were added to the CHRM prewarmed at 37° C. After centrifugation at room temperature, the supernatant was discarded, and a hepatocyte suspension at 1×10^6 cells/mL was prepared in ice-cold KH buffer and stored on ice. […] The hepatocytes were incubated at 37° C. and 4° C., respectively, for 0 to 5 minutes. […] Specifically, 80 μL of the hepatocyte suspension was collected and added to a centrifugal tube containing 50 μL of oil (specific gravity: 1.015, Sigma-Aldrich Co.) and 100 μL of an aqueous 2 N NaOH solution under the oil layer, and centrifugation was performed at 10,000 g for 20 seconds. By the centrifugation, the hepatocytes passed through the oil layer and were solubilized with an aqueous 2 N NaOH solution.

[10] = biological target: T1, OATP1B1; test: Effect of known OATP inhibitors on OATP1B1-mediated uptake of DCF; conditions: DCF 3 μM, inhibitor 10 and 30 μM
[11] = read-out: Ki (EG), substrate radiolabeled EG 0.01 μM, HEK-293 cells forcedly expressing OATP1B1, 37° C., 5 minutes
[12] = read-out: Ki (DCF), substrate DCF 3 μM, HEK-293 cells forcedly expressing OATP1B1, 37° C., 5 minutes

Row | Compound | pKi [2] | pKi [3] | further results
1 | O=C1OC(c2ccc(O)c(S(=O)(=O)O)c2)(c2ccc(O)c(S(=O)(=O)O)c2)c2c(Br)c(Br)c(Br)c(Br)c21 [BSP, bromosulfophthalein] | – | – | DCF uptake by human hepatocytes in presence of inhibitor [1]: reduced; pKi [2, 11]: 7.14; pKi [3, 12]: 7.04
2 | O=C1OC2(c3cc(Cl)c(O)cc3Oc3cc(O)c(Cl)cc32)c2ccccc21 [DCF, Dichlorofluorescein] | – | – | uptake of fluorescent dye among the combinations of fluorescent dye and transporters tested [4]: highest uptake; Km [5]: 7.22 µM; Km [6]: 38.6 µM; substrate for OAT3 [7]: not a satisfactory substrate; uptake amount of DCF by HEK-293 cells forcedly expressing OATP1B1 [8]: increases over time and depends on the concentration of added DCF; transporter-mediated uptake of DCF by human hepatocytes [9]: increases over time
3 | C[C@]12CC[C@@H]3c4ccc(OS(=O)(=O)O)cc4CC[C@H]3[C@@H]1CCC2=O [ES, estrone-3-sulfate] | – | – | concentration dependence of inhibition of OATP1B1-mediated DCF uptake [10]: inhibition depends on the concentrations; pKi [2, 11]: 7.11; pKi [3, 12]: 7.10
4 | C[C@H](CCC(=O)NCCS(=O)(=O)O)[C@H]1CC[C@H]2[C@@H]3[C@H](O)C[C@@H]4C[C@H](O)CC[C@]4(C)[C@H]3C[C@H](O)[C@]12C [Taurocholic acid] | 4.76 | 5.06 | –
5 | C[C@]12CC[C@@H]3c4ccc(O)cc4CC[C@H]3[C@@H]1CC[C@@H]2O[C@@H]1O[C@H](C(=O)O)[C@@H](O)[C@H](O)[C@H]1O [estradiol-17β-D-glucuronide] | – | – | concentration dependence of inhibition of OATP1B1-mediated DCF uptake [10]: inhibition depends on the concentrations

Now from value to compound, other results behind:

Row | pKi [2] | pKi [3] | Compound | further results
6 | < 3.52 | < 3.52 | CN/C(=N/CCSCc1nc[nH]c1C)NC#N [Cimetidine] | –
7 | 5.38 | 5.16 | CC[C@H]1OC(=O)[C@H](C)[C@@H](O[C@H]2C[C@@](C)(OC)[C@@H](O)[C@H](C)O2)[C@H](C)[C@@H](O[C@@H]2O[C@H](C)C[C@H](N(C)C)[C@H]2O)[C@](C)(O)C[C@@H](C)C(=O)[C@H](C)[C@@H](O)[C@]1(C)O [Erythromycin] | –
8 | 4.91 | 4.81 | CC(=O)N1CCN(c2ccc(OCC3COC(Cn4ccnc4)(c4ccc(Cl)cc4Cl)O3)cc2)CC1 (stereo not drawn) [Ketoconazole] | –
9 | < 3.52 | < 3.52 | CN(Cc1cnc2nc(N)nc(N)c2n1)c1ccc(C(=O)N[C@@H](CCC(=O)O)C(=O)O)cc1 [Methotrexate] | –
10 | 6.54 | 6.59 | CO[C@H]1/C=C/O[C@@]2(C)Oc3c(C)c(O)c4c(O)c(c(/C=N/N5CCN(C)CC5)c(O)c4c3C2=O)NC(=O)/C(C)=C\C=C\[C@H](C)[C@H](O)[C@@H](C)[C@@H](O)[C@@H](C)[C@H](OC(C)=O)[C@@H]1C [Rifampicin, rifampicin] | –
11 | 6.05 | 5.90 | C=CC[C@@H]1/C=C(\C)C[C@H](C)C[C@H](OC)[C@H]2O[C@@](O)(C(=O)C(=O)N3CCCC[C@H]3C(=O)O[C@H](/C(C)=C/[C@@H]3CC[C@@H](O)[C@H](OC)C3)[C@H](C)[C@@H](O)CC1=O)[C@H](C)C[C@@H]2OC [Tacrolimus] | –
